From the supplement of paper PMC11061612 come the findings set out here.

Holding throughout (test): combination Emax (second highest fraction inhibited in the dose matrix, 72 h); higher = more inhibition; extreme values may be limits of the assay
The test system of assay [1] is EMC-BAC-2 (Non-Small Cell Lung Carcinoma). In a few lines: (§1)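 Bliss excess equals the observed combination effect minus the expected value EA + EB − EA·EB, where EA and EB are the effects of each agent alone. Combination Emax is the second-highest inhibition within the matrix. Inhibition was scaled from CellTiter-Glo 2.0 luminescence, with 0 set by vehicle wells and 1 by blank wells, after 72 hours of two-drug dosing of cells plated in 1536-well plates.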

Assay [2] deals with EW-18 (Ewing's Sarcoma). A digest of the protocol:
as §1

For assay [3], the system named is EW-3 (Ewing's Sarcoma). A digest of the protocol:
as §1

Assay [4] relates to GI-1 (Glioblastoma). In a few lines: as §1
In assay [5] the test system is GOTO (Neuroblastoma). In a few lines:
as §1

The subject of assay [6] is H-EMC-SS (Chondrosarcoma). In a few lines: as §1
The subject of assay [7] is HSC-2 (Oral Cavity Carcinoma). In a few lines:
as §1

For assay [8], the system named is KINGS-1 (Low Grade Glioma). A digest of the protocol: as §1
Assay [9] deals with LC4-1 (B-Lymphoblastic Leukemia). In a few lines: as §1
Assay [10] has as its system LOU-NH91 (Squamous Cell Lung Carcinoma). A digest of the protocol: as §1
For assay [11], the system named is NCI-H2405 (Lung Adenocarcinoma). In a few lines:
as §1

The subject of assay [12] is NCI-H322M (Lung Adenocarcinoma). In a few lines:
as §1

Assay [13] has as its system OCUB-M (Breast Carcinoma). In a few lines:
as §1

The test system of assay [14] is OCUM-1 (Gastric Carcinoma). In a few lines: as §1
Assay [15] deals with SNU-C1 (Colorectal Carcinoma). A digest of the protocol: as §1
For assay [16], the system named is TGBC11TKB (Gastric Carcinoma). In a few lines:
as §1

Consider `CCc1c2c(nc3ccc(O)cc13)-c1cc3c(c(=O)n1C2)COC(=O)[C@]3(O)CC` [SN-38] + O=C(c1cc(Cc2n[nH]c(=O)c3ccccc23)ccc1F)N1CCN(C(=O)C2CC2)CC1 [Olaparib] (first compound max 0.3 µM, 7x7, partner max 10 µM), for which the “combination Emax” value in assay [1] was 0.531; in assay [2] it was 0.773; in assay [3], 0.884; in assay [4] it was 0.954; in [5], 0.879; in assay [6], 0.676. Also, the “combination Emax” value in assay [7] was 0.977; in assay [8], 0.287; in assay [9], 0.948; in assay [10] it was 0.883; in [11] it was 0.472; in assay [12], 0.869. Further, the “combination Emax” value was determined as 0.922 in [13], 0.645 in [14], 0.349 in assay [15] and 0.792 in assay [16].
